Assay results published in patent publication US20080071331A1, “Photodynamic Therapy For The Treatment Of Prostatic Conditions” (QLT Inc., priority 2004, published 2008).

System: prostate
Experiment: Photodynamic therapy of the dog prostate after direct intraprostatic injection of lemuteporfin and transurethral 690 nm light
Format: in vivo
Conditions: mature intact mixed-breed dogs
Protocol: Eight mature, intact, mixed-breed dogs are premedicated with butorphanol (0.4 mg per kilogram of body weight), acepromazine (0.1 mg/kg), and atropine (0.4 mg/kg), all given by intramuscular injection. Anesthesia is induced with intravenous thiopental sodium (8 mg per 0.4536 kilograms of body weight) and maintained with inhaled isoflurane and oxygen (dosage as required for anesthetic effect). Lemuteporfin for injection (A-EA6 in U.S. Pat. No. 5,929,105) is reconstituted with Water for Injection to give a stock concentration of 2.0 mg/ml and diluted with 5% Dextrose in water to a concentration 0.2 mg/ml. A standard cystoscope is inserted into the urethra. Injections of the drug are then delivered to the prostate using a commercially available transurethral injection device (InjecTx™, San Jose, Calif., USA) which is compatible with the cystoscope. Two injections of 0.5 ml are given to each left lobe of the prostate and 2 injections of 1.0 ml are given to each right lobe of the prostate. The transurethral injection device is then removed and a guidewire is inserted through the working channel of the cystoscope. The activation-energy delivery device comprises: a cylindrical fibre optic with a 200 μm diameter core, a 25 mm long diffuser, and a power rating of 175 mW/cm (maximum power load, 437.5 mW); a reflective-cap fibre-centering balloon catheter with a 20 mm treatment window supplied with a guidewire for positioning the device in the urethra; and a 3 W 690 nm red-light diode laser (AOC, South Plainfield, N.J., USA). The catheter is inserted and positioned using the guidewire which is fed through an internal channel of the catheter. Once the catheter is in position the balloon is inflated to secure it in place. The guidewire is removed from the catheter and the fiber optic diffuser is inserted into the catheter and secured in place. The treatment assembly is positioned in the urethra using ultrasonic guidance. Ultrasound is also used to position the needles for four percutaneous intraprostatic injections (two per lobe separated by longitudinally by 1 cm). […]

[1] = 0.2 mg/ml intraprostatic injections, 690 nm light 25, 50 or 100 J/cm^2, after seven days

Bowel, bladder, and prostate sizes [1]: within normal ranges
Structure (SMILES): C=Cc1c(C)c2cc3nc(cc4[nH]c(cc5nc(cc1[nH]2)C(C)=C5CCC(=O)OCCO)c(CCC(=O)OCCO)c4C)[C@@]1(C)C3=CC=C(C(=O)OC)[C@H]1C(=O)OC [Lemuteporfin, lemuteporfin]
PDT-associated damage in the urethra [1]: no significant PDT-associated damage | PDT-associated tissue damage in the target tissue (prostates) (0.2 mg/ml, 2 x 0.5 ml left lobe, 2 x 1.0 ml right lobe, 690 nm light 25, 50 or 100 J/cm^2 15 minutes after last injection, prostates harvested after seven days): evidence of PDT-associated tissue damage in the target tissue
